Experiments:
[1] = test system: isolated rat adipocytes; experiment: Lipogenesis in rat free fat cell assay; format: cell-based
Description: The metabolic potency of the insulin derivatives of the invention was determined by lipogenesis using isolated rat adipocytes.
In brief, epididymal fat pads were removed from killed Sprague-Dawley rats and placed in degradation buffer with collagenase (Worthington) in order to degrade the fat pads into a single-cell suspension. […] The incubation was stopped by addition of MicroScint-E (PerkinElmer), and the plates counted in a TopCount NXT (PerkinElmer).

[2] = test system: AKT and ERK; experiment: Insulin receptor signalling via AKT and ERK phosphorylation in CHO-hIR cells (Western blot / Surefire); format: cell-based, Chinese hamster; conditions: 10 min stimulation, Table 1A
Description: Insulin receptor (IR) signalling of the analogues of this invention via AKT and ERK pathways was assessed either by traditional Western blotting technique or by the use of Surefire, alphascreen technique.
In brief, CHO-hIR cells were stimulated for 10 min with increasing concentrations of the insulin analogue, washed in ice-cold PBS, snap-frozen and lysed in lysis buffer (Biosource). Equal amounts of proteins were loaded on gels and blotted to nitrocellulose membranes. Phosphorylated AKT and ERK were visualised with Phospho-AKT (Ser473) (Cell signalling #9271) and pMAPK 44/42 ERK1/2 rabbit (Cell Signalling #4376) antibodies, respectively. Band intensities were evaluated using a LAS3000 (Fuji).
The responsiveness value (Span) for each analogue was calculated using non-linear regression in GraphPad Prism 7 from GraphPad Software Inc and expresses as percent of the responsiveness of insulin (% max AKT or % max ERK)

[3] = 0.1% HSA as printed, Table 1A second lipogenesis column
[4] = 0.1% HSA, Table 1A first lipogenesis column

Substance	Lipogenesis 0.1% HSA EC50 (% of human insulin) [1, 3]	Lipogenesis 0.1% HSA EC50 (% of human insulin) [1, 4]	% maxERK/% maxAKT [2]
N{Epsilon-B28}-[(4R)-4-[(3R,10S,13R,17R)-3-hydroxy-10,13-dimethyl-2,3,4,5,6,7,8,9,11,12,14,15,16,17-tetradecahydro-1H-cyclopenta[a]phenanthren-17-yl]pentanoyl]-[TyrB5,LysB28],des-(B29-B30)-Insulin [Example 9]	0.49 % of human insulin	0.40 % of human insulin	0.29
N{Epsilon-B28}-[(4S)-4-carboxy-4-[[(4R)-4-[(3R,10S,13R,17R)-3-hydroxy-10,13-dimethyl-2,3,4,5,6,7,8,9,11,12,14,15,16,17-tetradecahydro-1H-cyclopenta[a]phenanthren-17-yl]pentanoyl]amino]butanoyl]-[TyrB5,LysB28],des-(B29-B30)-Insulin [Example 8]	0.72 % of human insulin	1.76 % of human insulin	0.32

Source: US10919949B2, “Acylated insulin analogues and uses thereof” (Novo Nordisk A/S, priority 2017, dated 2021)
